Data reported in patent US7101878B1 (Agouron Pharmaceuticals, Inc., priority 1998, dated 2006).
Read-outs that look alike come from different tables or passages of the source.

Target: T1, human GnRH receptor (Homo sapiens, UniProt P30968)
T1 construct: expressed in transfected cells; host or cells: HEK 293 (hGnRH-R/293, from Dr. Stuart Sealfon)
T1 sequence (P30968 1-328): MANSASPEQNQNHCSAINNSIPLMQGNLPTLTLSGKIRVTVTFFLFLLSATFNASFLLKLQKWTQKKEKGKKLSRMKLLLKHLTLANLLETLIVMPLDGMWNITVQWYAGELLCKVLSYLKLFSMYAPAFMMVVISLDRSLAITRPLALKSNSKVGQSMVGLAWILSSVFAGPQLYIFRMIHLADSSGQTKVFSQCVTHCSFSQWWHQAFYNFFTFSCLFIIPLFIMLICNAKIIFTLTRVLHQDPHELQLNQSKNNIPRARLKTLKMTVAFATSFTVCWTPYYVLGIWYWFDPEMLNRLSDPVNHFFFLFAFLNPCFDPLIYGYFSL
Assay: Radioligand binding, 125I-GnRH-A displacement, membranes of HEK 293 cells with human GnRH receptor
Details: for remaining activity at 1 µM / remaining activity at 10 µM: substrate remaining, closer to zero = closer to 100% inhibition; for remaining activity at 1 µM: 1 uM compound, read-out: S%R 1 uM hGnRHR; for IC50: read-out: hGnRH IC50; for remaining activity at 10 µM: 10 uM compound, read-out: S%R 10 uM hGnRHR
Summary of the method: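 Bound tracer was separated by filtration through polyethyleneimine-soaked GF/C filters and counted by liquid scintillation. IC50 from curve fitting; other species were tested under the same conditions.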

[1] = 1 uM, read-out: % Inhib. @ 1 uM hGnRH
[2] = 1 h, repeat of % Inhib. at 1 uM, read-out: Repeats @ 1 uM hGnRH

inhibition at 1 µM [1] [%]	inhibition at 1 µM [2] [%]	Structure (SMILES)	also measured
		COc1cc(CCNC(=O)c2ccc(Cc3cc4c(cc3C)C(C)(C)CCC4(C)C)o2)cc(OC)c1 [Compound 430]	remaining activity at 1 µM (1 h): 55%
31	42	COc1ccc(C(NC(=O)c2ccc(Cc3cc4c(cc3C)C(C)(C)CCC4(C)C)o2)c2ccc(OC)cc2)cc1	
		Cc1cc2c(cc1Cc1ccc(C(=O)NCCc3ccccc3)o1)C(C)(C)CCC2(C)C [Compound 405]	remaining activity at 1 µM (1 h): 40%
-6	16	Cc1cc2c(cc1Cc1ccc(C(=O)NCc3cccc(C(F)(F)F)c3)o1)C(C)(C)CCC2(C)C	
		Cc1cnc(CNC(=O)c2ccc(Cc3cc4c(cc3C)C(C)(C)CCC4(C)C)o2)cn1 [drawing 1009]	inhibition at 1 µM (1 h, read-out: Repeats @ 1 uM hGnRH): 107%; inhibition at 1 µM (read-out: % Inhib. @ 1 uM hGnRH): 102%
81	85	Cc1cc2c(cc1Cc1ccc(C(=O)NCc3cccc(C)c3C)o1)C(C)(C)CCC2(C)C [drawing 1192]	
76	83	COc1cccc(CNC(=O)c2ccc(Cc3cc4c(cc3C)C(C)(C)CCC4(C)C)o2)c1OC [drawing 1093]	
		CCOC(=O)CN(Cc1ccccn1)C(=O)c1ccc(Cc2cc3c(cc2C)C(C)(C)CCC3(C)C)o1 [Compound 216]	IC50: 4.4 µM
68	69	Cc1cc2c(cc1Cc1ccc(C(=O)NCC(O)c3ccccc3)o1)C(C)(C)CCC2(C)C (centres unmarked) [drawing 1196]	
		Cc1cc2c(cc1Cc1ccc(C(=O)Nc3ccc4cn[nH]c4c3)o1)C(C)(C)CCC2(C)C [Compound 365]	remaining activity at 10 µM (1 h): 47%
13	33	Cc1cc2c(cc1Cc1ccc(C(=O)NCCCN(C)CCCN)o1)C(C)(C)CCC2(C)C [drawing 1005]	
		COc1cc(OC)c(NC(=O)c2ccc(C(=O)c3cc4c(cc3C)C(C)(C)CCC4(C)C)o2)c(OC)c1 [Compound 190]	IC50: 0.42 µM
		Cc1cc2c(cc1Cc1ccc(C(=O)NC[C@H]3CCCO3)o1)C(C)(C)CCC2(C)C [Compound 57]	IC50: 0.83 µM
27	31	Cc1cc2c(cc1Cc1ccc(C(=O)NCCCN3CCCCC3C)o1)C(C)(C)CCC2(C)C (centres unmarked) [drawing 983]	
-5	6	Cc1cc2c(cc1Cc1ccc(C(=O)N(CCCO)Cc3ccccc3[N+](=O)[O-])o1)C(C)(C)CCC2(C)C	
84	89	Cc1cc2c(cc1Cc1ccc(C(=O)NCC3CCCC(CNc4cccc(NCC5CCCO5)n4)C3)o1)C(C)(C)CCC2(C)C (centres unmarked)	
		Cc1cc2c(cc1Cc1ccc(C(=O)Nc3ccc(CCO)cc3)o1)C(C)(C)CCC2(C)C [Compound 323]	remaining activity at 10 µM (1 h): 1%
		CCN(CC)S(=O)(=O)c1ccc(OC)c(NC(=O)c2ccc(Cc3cc4c(cc3C)C(C)(C)CCC4(C)C)o2)c1 [Compound 26]	IC50: 1.01 µM
24	35	COc1cc(CNC(=O)c2ccc(Cc3cc4c(cc3C)C(C)(C)CCC4(C)C)o2)cc(OC)c1 [drawing 1026]	
-19	-22	Cc1cc2c(cc1Cc1ccc(C(=O)N3CCCCC3c3ccccc3)o1)C(C)(C)CCC2(C)C (centres unmarked)	
		COc1cc(OC)c([N+](=O)[O-])c(NC(=O)c2ccc(Cc3cc4c(cc3C)C(C)(C)CCC4(C)C)o2)c1[N+](=O)[O-] [Compound 173]	IC50: 2.8 µM
-11	-5	CCN(Cc1cc([N+](=O)[O-])ccc1O)C(=O)c1ccc(Cc2cc3c(cc2C)C(C)(C)CCC3(C)C)o1	
		Cc1cc2c(cc1Cc1ccc(C(=O)Nc3ccc(CO)cc3)o1)C(C)(C)CCC2(C)C [Compound 339]	remaining activity at 10 µM (1 h): 17%
		Cc1cc2c(cc1Cc1ccc(C(=O)Nc3ncc([N+](=O)[O-])cn3)o1)C(C)(C)CCC2(C)C [Compound 205]	IC50: > 10 µM
62	69	Cc1cc2c(cc1Cc1ccc(C(=O)NCc3cccc(Cl)c3Cl)o1)C(C)(C)CCC2(C)C [drawing 1102]	
15	26	Cc1cc2c(cc1Cc1ccc(C(=O)N[C@H](CO)c3ccccc3)o1)C(C)(C)CCC2(C)C	
